Data as given in patent publication US12188937B2, “Peptoid compound and detection chip coupled with peptoid compound on the surface” (BEIJING BOE TECHNOLOGY DEVELOPMENT CO., LTD., priority 2019, dated 2025).

Molecular target: T1, EpCAM protein (Homo sapiens, UniProt P16422)
T1 construct: purchased Sino Biological Inc
T1 sequence (P16422 24-314): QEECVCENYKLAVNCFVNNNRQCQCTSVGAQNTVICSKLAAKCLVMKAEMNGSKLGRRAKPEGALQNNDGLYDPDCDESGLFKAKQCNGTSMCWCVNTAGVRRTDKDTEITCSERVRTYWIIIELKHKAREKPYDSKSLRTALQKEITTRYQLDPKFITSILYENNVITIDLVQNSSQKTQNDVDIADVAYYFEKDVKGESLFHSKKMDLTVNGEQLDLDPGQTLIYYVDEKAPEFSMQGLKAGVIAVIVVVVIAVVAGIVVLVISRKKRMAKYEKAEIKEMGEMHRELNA
Test: surface plasmon resonance imaging (SPRi) test of binding ability of chip-spotted peptoid to EpCAM protein
Details: EpCAM 5.68-91.2 nM in PBS, binding 300 s, dissociation 300 s, fitted with BIAevalution 4.1, read-out: equilibrium dissociation constant KD

NCCCCNC(=O)CN(CCc1ccc(-c2ccccc2)cc1)C(=O)CN(CCC(=O)O)C(=O)CNCCc1ccccc1 [Formula II]
Kd: 18.7 nM
